# In article PMC6271273, “Chemo-Enzymatic Synthesis of Silybin and 2,3-Dehydrosilybin Dimers” (Molecules, 2014):
# Marks after values point to notes of the source that are not given here.
# Tests used:
# [1] = Square wave voltammetry (in situ / ex situ) at pyrolytic graphite electrode; type: physicochemical; conditions: for Oxidation potential Ep1 / Oxidation potential Ep2: SWV, vs. Ag/AgCl/3 M KCl, pH 7.4, n = 3; for Oxidation potential Ep1: ascribed to oxidation of C-20 OH; for Oxidation potential Ep2: oxidation of resorcinol moiety (ring A)
# Description: The monomeric flavonolignans and their dimers were analyzed using in situ voltammetry with the working electrode (PGE: pyrolytic graphite electrode) dipped in the supporting electrolyte containing the analytes and/or ex situ voltammetric analysis (adsorptive transfer, AdT technique). For this purpose, the PGE was first dipped into a 5 µL aliquot of the studied sample. After an accumulation period (30 s), the electrode was washed with deionized water and placed in an electrochemical cell containing pure supporting electrolyte. Square-wave voltammetry (SWV) and cyclic voltammetry (CV) were performed at room temperature with a µAutolab III analyzer (EcoChemie, Utrecht, The Netherlands) in a three-electrode setup (Ag/AgCl 3M KCl electrode as a reference and a platinum wire as the auxiliary electrode). SWV parameters: frequency: 200 Hz, from 0 V to +1.5 V, concentration of tested compounds (50 µM), supporting electrolyte: Britton-Robinson buffer, pH 7.4. The flavonolignans analyzed were dissolved in methanol as a stock solution of 1 mg mL^−1 (stored in a fridge in the dark), and diluted with the supporting electrolyte and/or 0.2 M acetate buffer (pH 5) for in situ and/or ex situ voltammetry. Ex situ a.c. voltammetry (out-of-phase) was carried out with a hanging mercury drop electrode (HMDE) according to the previously published paper. In this case, the flavonolignans (50 µM) were adsorbed from 0.2 M acetate buffer (pH 5) for 30 s. For current responses and potentials (Ep), the standard deviations (S.D.) were less than ±3.55% and ±3 mV for all experiments, respectively.
# [2] = DPPH radical scavenging assay; type: biochemical; conditions: for DPPH [% of inhibition]: 33 µM test compound, n = 4, absorbance at 517 nm after 30 min
# Description: Antiradical activity was evaluated spectrophotometrically as the ability of the tested substances to reduce the 1,1-diphenyl-2-picrylhydrazyl (DPPH) radical as described previously with minor modifications. Briefly, a solution of the tested substance (10 µL, final concentration 0–540 µM) were mixed with a freshly prepared methanolic DPPH solution (290 µL, final concentration 20 µM) in a microtiter plate well. After 30 min, absorbance at 517 nm was measured, percentages of inhibition were calculated using the negative control and for selected compounds the IC50 values were obtained from the inhibition curves.
# [3] = Stability of dimers in buffers, HPLC; type: physicochemical; conditions: PBS and phosphate buffers (0.2 M, pH 7.4), longer than 24 h
# Description: The stability of the dimers in PBS buffer and phosphate buffer (0.2 M, pH 7.4) was monitored using an HPLC method. […] The chromatography was carried out in a Shimadzu Prominence UFLC system (Kyoto, Japan) consisting of a DGU-20A mobile phase degasser, two LC-20AD solvent delivery units, SIL-20ACHT cooling autosampler, CTO-10AS column oven and SPD-M20A (PDA, photodiode array detector). A Chromolith Performance RP-18e monolithic column (100 × 3 mm i.d.) and guard column (5 × 4.6 mm i.d., both Merck) were used. The PDA data were acquired in the 200–450 nm range and the 285 signal was extracted. Gradient elution: mobile phase A: 0.1% formic acid, 10% methanol in water (v/v/v); mobile phase B: 0.1% formic acid in methanol (v/v); gradient, 0–1 min, 20% B; 1–8 min, 20%–90% B; 8–9 min, 90% B, 9–10 min, 90%–20% B. The flow rate was 1.2 mL/min at 25 °C.
# [4] = system: normal human adult epidermal keratinocytes (NAK); experiment: Cytotoxicity, MTT test, NAK; type: cell-based; conditions: Keratinocyte, 24 h incubation, read-out: IC50 viability (MTT-reducing ability) NAK
# Description: (§1) All the cells were cultured in a humidified atmosphere with 5% (v/v) CO2 at 37 °C and subcultured before conﬂuence. Human Umbilical Vein Endothelial Cells (HUVEC) were isolated from umbilical cords of healthy non-smoker women (18–35 years) as described previously, cultivated in gelatin-coated flasks in EGM and used in passages 2–6. Primary Normal human Adult epidermal Keratinocytes (NAK) were isolated from normal skin obtained from excessive tissue removed during abdominoplasty or mammoplasty of healthy adult patients as described in [36, 50], cultivated in EpiLife medium with the addition of HKGS. Mouse fibroblasts (BALB/c 3T3 cells) were purchased from the European Collection of Cell Cultures (ECACC, Salisbury, UK) and were grown in DMEM supplemented with heat-inactivated FCS (5%, v/v) and newborn FCS, streptomycin […] and glutamine (4 mM). Hepatocyte carcinoma HepG2 cells (No. 85011430, ECACC) were cultured at 37 °C in DMEM supplemented with 2 mM L-glutamine, 1% non-essential amino acids, 100 U/mL penicillin, […] and 10% fetal bovine serum (Invitrogen, Carlsbad, CA, USA).
# (§2) The cells were plated into 96-well cell culture plates and grown to near confluence. The tested compounds were placed in the respective fresh medium in serial dilutions (100 µL/well) and incubated with the cells for 24 h. After incubation, the medium was removed, the cells were washed with PBS, fresh medium containing 1 mg/mL of MTT was added and the plates were incubated for a further 3 h (37 °C). The resulting formazan was dissolved in 50 µL of 1% NH3 in DMSO, absorbance was read at 540 nm and IC50 values were obtained graphically from the dependence of cell viability on the concentration of the tested compound.
# [5] = system: mouse fibroblasts (BALB/c 3T3); experiment: Cytotoxicity, MTT test, BALB/c 3T3; type: cell-based; conditions: BALB/c3T3, 24 h incubation, read-out: IC50 viability (MTT-reducing ability) BALB/c 3T3
# Description: as §1, §2
# [6] = system: rat liver microsomes; experiment: Inhibition of microsomal lipid peroxidation induced by tert-butyl hydroperoxide (TBARS); type: biochemical; conditions: rat liver microsomes, 1 mM tert-butyl hydroperoxide, TBARS
# Description: Microsomes were prepared from rat liver homogenate as described previously and resuspended in 50 mM Tris-HCl buffer with 100 mM KCl and 0.1 mM EDTA (pH 7.4). The protein concentration in the stock microsomal suspension was determined using the Bradford method to be typically ca 30 mg protein/mL. This stock suspension was stored at −80 °C and diluted to 0.625 mg protein/mL using PBS before use. 0.4 mL of the diluted microsomal suspension was then mixed with the compounds tested (final concentration 10–200 µM in 0.01 mL DMSO) and incubated for 10 min at 37 °C. tert-Butyl hydroperoxide (0.09 mL in PBS; final concentration 1 mM) was then added and the mixture was incubated at 37 °C for 30 min. The products of lipid peroxidation were determined as thiobarbituric acid reactive substances (TBARS): 0.7 mL of […] were added, the mixture was heated (90 °C; 30 min), cooled, centrifuged (10 min; 10,000 rpm; 4 °C) and the absorbance of the supernatant at 535 nm measured. The activity was calculated as the concentration of the tested compound that inhibited the color reaction with thiobarbiturate (without the tested compound) by 50% (IC50).
# [7] = system: human umbilical vein endothelial cells (HUVEC); experiment: Cytotoxicity, MTT test, HUVEC; type: cell-based; conditions: 24 h incubation, read-out: IC50 viability (MTT-reducing ability) HUVEC
# Description: as §1, §2
# [8] = Cytotoxicity, MTT test, range over all cells other than NAK; type: cell-based; conditions: human (HUVEC, HepG2) and mouse (BALB/c 3T3), all cells used other than NAK (HUVEC, BALB/c 3T3, HepG2), read-out: Cytotoxicity IC50, range over cell types
# Description: as §1, §2
# [9] = system: HepG2 cells; experiment: Cytotoxicity, MTT test, HepG2; type: cell-based; conditions: Homo sapiens, 24 h incubation, read-out: IC50 viability (MTT-reducing ability) HepG2
# Description: as §1, §2
SMILES,Oxidation potential Ep1 [1] [V],Oxidation potential Ep2 [1] [V],DPPH [% of inhibition] [2],Stability during longer incubation [3],IC50 [4] [µM],"Adsorption onto the electrode ([1]; ex situ (adsorptive transfer) SWV, open circuit potential)",IC50 [5] [µM],IC50 [6] [µM],IC50 [7] [µM],"IC50 ([2]; 20 µM DPPH, 30 min) [µM]",IC50 at 24 h [8] [µM],IC50 [9] [µM]
"COc1cc([C@@H]2Oc3cc([C@H]4Oc5cc(O)cc(O)c5C(=O)[C@@H]4O)ccc3O[C@H]2COC(=O)CCCCCCCCCCC(=O)OC[C@@H]2Oc3ccc([C@H]4Oc5cc(O)cc(O)c5C(=O)[C@@H]4O)cc3O[C@H]2c2ccc(O)c(OC)c2)ccc1O [Compound 4, bis(((2S,3S)-3-(4-Hydroxy-3-methoxyphenyl)-6-((2R,3R)-3,5,7-trihydroxy-4-oxochroman-2-yl)-2,3-dihydrobenzo[b][1,4]dioxin-2-yl)methyl) dodecanedioate]",0.57,0.83,9.0 ± 3.0 ^a %,signs of instability (decomposition),–,–,–,–,–,–,–,–
"COc1cc([C@H]2Oc3cc([C@H]4Oc5cc(O)cc(O)c5C(=O)[C@@H]4O)ccc3O[C@@H]2COC(=O)CCCCCCCCCCC(=O)OC[C@@H]2Oc3ccc([C@H]4Oc5cc(O)cc(O)c5C(=O)[C@@H]4O)cc3O[C@H]2c2ccc(O)c(OC)c2)ccc1O [Compound 5, 1-(((2R,3R)-3-(4-Hydroxy-3-methoxyphenyl)-6-((2R,3R)-3,5,7-trihydroxy-4-oxochroman-2-yl)-2,3-dihydrobenzo[b][1,4]dioxin-2-yl)methyl) 12-(((2S,3S)-3-(4-hydroxy-3-methoxyphenyl)-6-((2R,3R)-3,5,7-trihydroxy-4-oxochroman-2-yl)-2,3-dihydrobenzo[b][1,4]dioxin-2-yl)methyl) dodecanedioate]",0.55,0.83,7.0 ± 2.9 ^a %,signs of instability (decomposition),–,–,–,–,–,–,–,–
"COc1cc(C2Oc3cc(-c4oc5cc(O)cc(O)c5c(=O)c4O)ccc3OC2COC(=O)CCCCCCCCCCC(=O)OCC2Oc3ccc(-c4oc5cc(O)cc(O)c5c(=O)c4O)cc3OC2c2ccc(O)c(OC)c2)ccc1O (stereo not shown) [Compound 7, bis((3-(4-Hydroxy-3-methoxyphenyl)-6-(3,5,7-trihydroxy-4-oxo-4H-chromen-2-yl)-2,3-dihydrobenzo-[b][1,4]dioxin-2-yl)methyl) dodecanedioate]",0.57,0.99,33.4 ± 3.1 ^c %,–,> 200,strictly limited and practically impossible,161 ± 9,59.2 ± 5.9,98.4 ± 10.6,29 ± 0.7,99 to 173,172 ± 11.6
